Test system: BLM-induced lung fibrosis in mice
Assay: Bleomycin (BLM)-induced lung fibrosis mice model
Type: in vivo, C57BL/6JNarl mice
Details: BLM mice; for fibrosis score, Mean ± SEM: H&E histology day 39
Experimental: FIGS. 8 (A) and (B) show the effect of L056 effect on fibrosis score of BLM-induced lung fibrosis in mice. C57BL/6 mice (8 weeks) were treated with bleomycin (BLM, 0.05 U/50 μl) or PBS (50 μl) by endotracheal administration. […] On day 39, the mice were sacrificed and, the histologic analysis of lung tissue was performed by hematoxylin-eosin (H&E) staining (original magnification, x100). […] (A), Histology fibrosis score plot; (B), H&E staining plot.
FIG. 9 (A) to (D) show the inhibitory effects on pro-fibrogenic mediators, collagen, CTGF, fibronectin and […], respectively. (A), H&E staining plot for collagen; (B), H&E staining plot for CTGF; (C), H&E staining plot for fibronectin; (D), H&E staining plot for α-SMA.
C57BL/6JNarl mice (8 weeks) were treated with bleomycin (BLM, 0.05 U/50 μl) or PBS (50 μl) by endotracheal administration. […] On day 39, the mice were sacrificed, and the histologic analysis of lung tissue was performed by hematoxylin-eosin (H&E) staining (original magnification, x100).

[1] = 200 mg (mg/kg/day, q.d., oral, days 10 to 38)
[2] = 60 mg (oral, q.d., days 10 to 38)

Compound | Efficacy % (reduction of fibrosis score) [1] | fibrosis score, Mean ± SEM [1] | Efficacy % (reduction of fibrosis score) [2] | fibrosis score, Mean ± SEM [2]
Cc1ccc(=O)n(-c2ccccc2)c1 [Esbriet, pirfenidone, reference compound] | 34.08% | 3.91 ± 0.21 | – | –
COC(=O)c1ccc2c(c1)NC(=O)/C2=C(\Nc1ccc(N(C)C(=O)CN2CCN(C)CC2)cc1)c1ccccc1 [OFEV, nintedanib, reference compound] | – | – | 41.66% | 3.62 ± 0.30
